Source: US20200199647A1, “ASSAY FOR SCREENING MODULATORS OF HOLOPHOSPHATASE ACTIVITY” (UNITED KINGDOM RESEARCH AND INNOVATION, priority 2017, published 2020)

Assays:
R15A [1] = biological target: T1, R15A (Homo sapiens, UniProt O75807); assay: Light scattering to monitor aggregation of R15A; settings: 1 mM compound, 5 μM R15A, 10 min, 20° C.
T1 construct: PPP1R15A amino acids 325-636 (R15A); His6 (C); made in house; host or cells: E. coli BL21 pLysS
Procedure: Samples were incubated for 10 min at RT. […] Therefore, light scattering was measured at 380 nm emission, 380 nm absorption to monitor the presence of aggregates. For each sample, 100 data points were collected over a period of 10 min, at 20° C., with constant stirring.

HeLa cells = assay: Cytoprotection of HeLa cells from Tunicamycin (ER) stress; format: cell-based; settings: 250 ng/ml Tunicamycin, 72 h
Procedure: HeLa cells (40,000 cells/ml) were plated in a 96-well plate and treated with different concentrations of compound, as indicated, or DMSO vehicle in the presence of 250 ng/ml Tunicamycin for 72 h. To monitor cell death, 1/2000 dilution of the CellTox green dye (Promega) was added to the media. The growth of the cells was monitored over time and pictures taken every 2 h with the IncuCyte ZOOM system and analysed by the IncuCyte ZOOM software (Essen BioScience). To compare different compounds and their cytoprotective effect, a growth ratio for each time point was calculated:
Growth ratio=(Phase confluency (%) at X hours)/(Phase confluency (%) at 0 hours)
The end point of the assay (72 h) was chosen for generating the graphs.

R15A [2] = biological target: T1, R15A; assay: Binding of R15A to biotinylated compounds on Streptavidin beads and elution
Procedure: Purified R15A protein was diluted to 1 μM in IP buffer (50 mM Tris [pH 7.4], 150 mM NaCl, 0.1% Tween20, 10% glycerol). 1 μM R15A, in 100 μl volume, was pre-cleared with 25 μl of Pierce Streptavidin Magnetic Beads (ThermoFisher) for 1 h at 4° C. with rotation at 20 rpm. […] Samples were incubated for 3 h at 4° C. with rotation at 20 rpm. The supernatant was removed, and samples were thoroughly washed and transferred to a fresh Eppendorf. The beads were washed thoroughly with 5×1 ml interaction buffer, with 30 min incubation each time, and then resuspended with 50 μl of 4% SDS Laemmli sample buffer. Samples were run on 4-12% NuPAGE Bis-Tris gels (Life Technologies), and analysed by immunoblotting using α-MBP HRP (E8038) (NEB) (to reveal R15A). […] Samples were incubated for 10 min at 4° C. with 20 rpm rotation. 30 μl of supernatant was added to 10 μl of 16% SDS Laemmli sample buffer. 10 μl sample was run on 4-12% NuPAGE Bis-Tris gel (Life Technologies), and analysed by immunoblotting using α-MBP HRP (E8038) (NEB) (to reveal R15A).

T1 sequence (O75807 325-636, stated change not applied): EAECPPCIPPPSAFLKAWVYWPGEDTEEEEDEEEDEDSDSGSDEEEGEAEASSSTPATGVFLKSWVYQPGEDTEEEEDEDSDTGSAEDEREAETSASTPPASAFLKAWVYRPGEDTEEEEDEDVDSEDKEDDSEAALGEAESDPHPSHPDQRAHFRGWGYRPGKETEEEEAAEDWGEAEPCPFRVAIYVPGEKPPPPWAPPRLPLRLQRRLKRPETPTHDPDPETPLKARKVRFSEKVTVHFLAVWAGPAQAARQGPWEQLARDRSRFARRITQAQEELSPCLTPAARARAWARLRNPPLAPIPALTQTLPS

aggregation of R15A (light scattering at 380 nm) (R15A [1]): No aggregation | binding to R15A (R15A [2]; 0.5 mM biotinylated compound on Streptavidin beads, 1 μM R15A): directly bind R15A | nature of binding to R15A (elution with excess compound) (R15A [2]; elution with 2 mM free compound): not covalent
Compound: N=C(N)N/N=C/c1c(Cl)cccc1Cl [Guanabenz]
cytoprotection from ER stress (HeLa cells): Dose dependent cytoprotection
